Two compounds from the NIST ThermoML archive (doi:10.1016/j.jct.2013.01.033) can be followed below.

Numbers after ± are expanded uncertainties.

Data set [1] can be described thus: refractive index (Na D-line) (dimensionless). Conditions: 293.15 K; 101.33 kPa; Liquid; Standard Abbe refractometry.
The conditions of data set [2]: 101.33 kPa, Liquid, Vibrating tube method.

In the case of `CCCO` [propan-1-ol], the refractive index in data set [1] worked out at 1.38432 ± 0.0007.

For `CCCC[N+]1(C)CCCC1.N#CC(=C=[N-])C#N` [1-butyl-1-methylpyrrolidinium tricyanomethanide], the mass density in data set [2] (298.15 K) amounted to 1006.71 ± 0.85 kg/m3; in data set [2] (308.15 K), 1000.55 ± 0.84 kg/m3; in data set [2] (318.15 K), 994.44 ± 0.83 kg/m3; in data set [2] (328.15 K), 988.41 ± 0.82 kg/m3; in data set [2] (338.15 K), 982.44 ± 0.82 kg/m3; in data set [2] (348.15 K), 976.52 ± 0.81 kg/m3.

The term refractive index denotes a measure of how strongly the sample bends light. Usually mass density stands for the mass of a sample divided by its volume.
